Values quoted from earlier work, collected in US20130202654A1, “Topical Foam Composition” (priority 2009, published 2013).
Where two headings read alike, the source gives them in different places.

How the values were obtained:
[1] = not given; remark: listed apart in the source
[2] = not given; remark: listed apart in the source

- Tmax (in vivo): 0.8 h
- half-life (in vivo): 1.8 h
- Cmax (low systemic absorption): 3.4 ng/mL
- bound to plasma proteins [1]: 67.5%
- solubility in alcohol, ethyl acetate, chloroform and toluene ([2]; alcohol, ethyl acetate, chloroform, toluene): soluble
- solubility in alcohols ([2]; alcohols): readily soluble
- solubility in water [2]: water insoluble
- solubility in water ([2]; listed as rifaximin): virtually insoluble in water
SMILES: CO[C@H]1/C=C/O[C@@]2(C)Oc3c(C)c(O)c4c(O)c(c5c(nc6cc(C)ccn65)c4c3C2=O)NC(=O)/C(C)=C\C=C\[C@H](C)[C@H](O)[C@@H](C)[C@@H](O)[C@@H](C)[C@H](OC(C)=O)[C@@H]1C [Rifaximin, (2S,16Z,18E,20S,21S,22R,23R,24R,25S,26S,27S,28E)-5,6,21,23,25-pentahydroxy-27-methoxy-2,4,11,16,20,22,24,26-octamethyl-2,7-(epoxypentadeca-[1,11,13]trienimino)benzofuro[4,5-e]pyrido[1,2-a]-benzimida-zole-1,15(2H)-dione,25-acetate]
